Assay results from US20120263784A1, “EMERGENCY CONTRACEPTIVE” (LYKA LABS LIMITED, priority 2009, published 2012).

Assays:
[1] = in vivo; details: rat, po, 10 ug
Protocol: Size of the drug particles and liposomes in all the formulations was kept between 10-15 μm, as the particles with 10-20 μm are all deposited in the nasal cavity, whereas particles smaller than 1 μm pass with inspired air into the lungs.
Suspension containing 10-μg levonorgestrel was administered intranasally in three different group of rats.
Blood samples were collected at specific time points and plasma levonorgestrel concentrations were estimated. The drug plasma concentration at each sampling time point were plotted against time in hr.
The mucociliary clearance under normal conditions rapidly clears the applied material since there is a little time of contact between the drug and the mucosa. […] CS acts by opening tight junction between epithelial cells.

[2] = in vivo; details: rat, po
Protocol: Similarly, 10-μg of LN suspension was administered orally. Blood samples were collected at specific time points and plasma LN concentrations were estimated. The drug plasma concentration at each sampling time points were plotted against time in hr.
Various pharmacokinetic parameters (Cmax, Tmax and t1/2) were determined from drug plasma concentration-time curve. The area under the plasma level curve was calculated by the trapezoidal rule.

- Cmax [1]: 14.4 ng/mL
- Tmax [1]: 2.1 h
- half-life [1]: 16.9 h
- Cmax [2]: 14.4 ng/mL
- half-life [2]: 16.9 h
SMILES: C#C[C@]1(O)CC[C@H]2[C@@H]3CCC4=CC(=O)CC[C@@H]4[C@H]3CC[C@@]21CC [levonorgestrel]
